Measurements published in article PMC8558179, “The C-terminal peptide of CCL21 drastically augments CCL21 activity through the dendritic cell lymph node homing receptor CCR7 by interaction with the receptor N-terminus” (Cellular and Molecular Life Sciences: CMLS, 2021).
Entries after “also recorded” stand apart in the source; their conditions may differ.

T1: CCR7^−O (CCR7 T37/38/42A) (Homo sapiens, UniProt P32248, T37A/T38A/T42A)
T1 construct: CCR7 contains a 24-residue long signal peptide cleaved of from the mature protein; expressed in transfected cells; host or cells: CHO cells, transient transfection
T1 sequence (P32248 25-378 T37A/T38A/T42A): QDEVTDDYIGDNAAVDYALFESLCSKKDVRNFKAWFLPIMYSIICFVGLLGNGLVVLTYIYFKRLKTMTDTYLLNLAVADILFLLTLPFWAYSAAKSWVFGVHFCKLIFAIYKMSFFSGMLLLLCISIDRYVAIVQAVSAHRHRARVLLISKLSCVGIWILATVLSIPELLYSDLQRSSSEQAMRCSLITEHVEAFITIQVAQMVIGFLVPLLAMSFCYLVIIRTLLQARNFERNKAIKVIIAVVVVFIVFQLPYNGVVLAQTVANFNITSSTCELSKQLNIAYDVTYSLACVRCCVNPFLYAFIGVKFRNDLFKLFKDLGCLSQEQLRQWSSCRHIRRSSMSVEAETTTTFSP


Assays:
[1] = molecular target: T1, CCR7^−O (CCR7 T37/38/42A); assay: Gαi signaling, BRET cAMP assay, CCR7 lacking N-terminal O-glycosylation sites; assay type: cell-based
Experimental: O-glycosylation deficient CCR7 was generated from WT through Quick change PCR using the following primers: […]
For cAMP assays, adherent CHO cells were transfected using lipofectamine while suspension cells were transfected using the FectoPro method. Cells were seeded in a 6-well plate, either 500,000 (adherent cells) or 200,000 (suspension cells) cells/well. The next day the cells were transiently transfected with vectors encoding the human CCR7 and CAMYEL sensor (cAMP sensor using YFP-Epac-RLuc) in a 1:5 ratio using lipofectamine (6 µl/well) or FectoPro (4 µl/well). Lipofectamine transfections were terminated by changing to 2 ml fresh cultivation medium after 5 h, while Fectopro transfection was terminated after 3 h by adding 2.5 ml fresh cultivation medium and 2 µl FectoPro Boost reagent per well. The cells were incubated under standard cultivation conditions overnight. For β-arrestin recruitment assays, cells were transfected with CCR7 and vectors expressing a Renilla luciferase arrestin3 fusion protein and membrane-SH3-citrine protein. The cells were then resuspended in PBS w/glucose and seeded in 96-well white iso plates (~ 25,000 cells/well). Coelenterazine (bioluminescence substrate) was added to a final conc. of 5 µM. After 10 min, cells were stimulated with varying ligand concentrations for a total of 40 min. Forskolin was added to each well 5 min after ligand addition to reach a final conc. of 5 µM. The plates were kept in the dark at all times. Emission signal from Rluc and eYFP was measured using the Envision machine at 530 and 480 nm and the BRET signal determined as the ratio between (eYFP/Rluc).

[2] = tested on: human moDCs naturally expressing CCR7; assay: 3D chemotaxis, time-lapse recording of human moDCs in Collagen I (chemotactic index); assay type: cell-based
Experimental: Buffy coats were obtained from Rigshospitalet Copenhagen, as anonymous material, with written informed consent from the donors. The local ethics committee at Faculty of Health and Medical Sciences at the University of Copenhagen (Research Ethics Committee for Sund and Science, University of Copenhagen) found the project exempt from approval. DCs were prepared from human peripheral blood mononuclear cells (PBMC) isolated from buffy coats by centrifugation on a Lymphoprep gradient as previously described. Briefly, monocytes were isolated by plastic adherence of PBMC. Adhered monocytes were subsequently cultured and differentiated into immature DCs by incubation with IL-4 (250 U/ml) and GM-CSF (1000 U/ml) for 6 days, followed by activation into mature DCs by incubation with IL-6 (1000 U/ml), IL-1β (1000 U/ml), TNF-α (1000 U/ml), and PGE2 (1 µg/ml) for an additional 2 days in the same medium.
Human DCs were cultured in X-vivo 15 medium with 2% human AB serum and glutamine. CHO-K1 pgsB-618 ATCC® CRL2241™ [24] and CHO-K1 cells were grown in RPMI with 10% FBS and Penicillin/Streptomycin. HS^−/− (CHO EXTL 2/3 −/−), CS^−/− (CSGALNACT 1/2^−/− CHSY1^−/−), 5xKO (GalNAc-T1, 2, 4, 7 and 10 −/−) and WT CHO suspension cells were grown in suspension in 1:1 of EX-Cell CD CHO fusion media and Balanced CD CHO growth A medium supplemented with 2% glutamine and Penicillin/Streptomycin. Cells were kept in a humidified incubator at 37 °C, 5% CO2.
Chemotaxis assays were conducted as previously described. Briefly, mature human moDCs were left to acclimatize in medium for 30 min at room temperature (RT) upon defrosting, before assay start. DCs were seeded in Bovine Collagen I mixture prepared by mixing 10 µl Na2HCO3 (7.5%), 20 µl MEM (10×), 150 µl PureCol and 90 µl DCs dissolved in X-vivo 15 medium (2 × 10^6 cells/ml). After incubation for 45 min in a humidified incubator at 37 °C (5% CO2), the source and sink reservoirs were filled according to the manufacturer’s instructions and chemotaxis was tracked in a time-lapse microscope with a humidified temperature controlled stage incubator for 12 h at a 2 min interval. Cell migration (approximately 20–40 cells per viewing field) was tracked using a commercial tracking program (Autozell) and subsequently analyzed to get a population-based chemotactic index (CI) value (MATLAB). CI is a measure of net translocation distance to the source relative to total distance traveled and was thus calculated as the ratio of the distance traveled in the direction of the gradient over the total distance traveled and therefore is a conservative measure of the directedness of cell migration.

[3] = tested on: CCR7-N (CCR7 N36/292A); assay: Gαi signaling, BRET cAMP assay, CCR7 lacking N-glycosylation sites; assay type: cell-based, human; settings: CCL21 alone or CCL21 + 10 µM TP71-111, CHO cells, n = 3
Experimental: For cAMP assays, adherent CHO cells were transfected using lipofectamine while suspension cells were transfected using the FectoPro method. Cells were seeded in a 6-well plate, either 500,000 (adherent cells) or 200,000 (suspension cells) cells/well. The next day the cells were transiently transfected with vectors encoding the human CCR7 and CAMYEL sensor (cAMP sensor using YFP-Epac-RLuc) in a 1:5 ratio using lipofectamine (6 µl/well) or FectoPro (4 µl/well). Lipofectamine transfections were terminated by changing to 2 ml fresh cultivation medium after 5 h, while Fectopro transfection was terminated after 3 h by adding 2.5 ml fresh cultivation medium and 2 µl FectoPro Boost reagent per well. The cells were incubated under standard cultivation conditions overnight. […] Emission signal from Rluc and eYFP was measured using the Envision machine at 530 and 480 nm and the BRET signal determined as the ratio between (eYFP/Rluc).
Supplementary file 18_2021_3930_MOESM4_ESM.png: Supplementary file4 C21TP boosting ability is not dependent on N-glycosylation sites. […] Signaling was measured in CHO cells quantified using the BRET based cAMP assay. […] Statistical significance was calculated using two-way ANOVA with Tukey’s correction for multiple test. *P<0.05, **P <0.01, ***P<0.001 (PNG 328 KB)

Row | Molecule | boosting of CCL19 signaling by C21TP at CCR7^−O ([1]; CCL19 + 10 µM TP71-111, CCR7^−O vs WT CCR7) | increase of CCL19-induced DC chemotaxis ([2]; 10 nM CCL19 + 10 µM TP71-111, human moDCs, n = 3–6) | fold boost of CCL21-induced DC chemotaxis (immune cell recruiting activity) ([2]; 10 nM CCL21, highest C21TP concentration 10 µM (0.1–10 µM tested), human moDCs, 12 h tracking, 37 °C, n = 3–11) | boosting of CCL21-induced DC chemotaxis ([2]; 10 nM CCL21, peptide 10 µM (0.1–10 µM in the dose series), human moDCs) | DC chemotaxis by C21TP alone ([2]; C21TP without chemokine, data not shown) | effect of removing extracellular N-glycosylation sites on signaling or boosting (CCR7-N) [3] | chemokine activity on its own at CCR7^−O ([1]; no peptide, CCR7^−O vs WT CCR7) | chemotaxis towards chemokine alone ([2]; 10 nM chemokine, no peptide, human moDCs)
1 | TP71-111: free CCL21 C-terminal peptide, residues 71–111 (41 amino acids, positively charged) (PSPQKPAQGCRKDRGASKTGKKGKGSKGCKRTERSQTPKGP; UniProt O00585 94-134, looked up, fragment) | diminished | significantly increased in the presence of 10 µM C21TP (TP71-111), by approximately twofold | up to 25 fold | boosted significantly by the C21TP in a dose-dependent manner | did not induce DC chemotaxis | no effect |  | 
2 | CCL21: full-length chemokine (residues 1–111), CCR7 ligand, from R&D Systems (protein, UniProt O00585 24-134, looked up) C-C motif chemokine 21: SDGGAQDCCLKYSQRKIPAKVVRSYRKQEPSLGCSIPAILFLPRKRSQAELCADPKELWVQQLMQHLDKTPSPQKPAQGCRKDRGASKTGKKGKGSKGCKRTERSQTPKGP |  |  |  |  |  | no effect | almost unaffected; also recorded: without affecting basal CCR7 activation via CCL19 and CCL21 | very weak chemotactic cue
